Results as given in patent US20040162422A1, “Chemical compounds” (priority 2001, published 2004).

Experiments:
[1] = biological target: T1, human adenosine A3 receptors (Homo sapiens, UniProt P0DMS8); assay: Reporter gene experiments in CHO cells (CRE/SPAP, inhibition of forskolin-stimulated SPAP production); type: cell-based; conditions: ECR = equipotent concentration ratio relative to NECA = 1; agonist potency, CHO CRE/SPAP reporter gene assay
T1 construct: expressed in transfected cells; host or cells: Chinese hamster ovary (CHO) cells with CRE/SPAP/HYG reporter
T1 sequence (P0DMS8 1-318): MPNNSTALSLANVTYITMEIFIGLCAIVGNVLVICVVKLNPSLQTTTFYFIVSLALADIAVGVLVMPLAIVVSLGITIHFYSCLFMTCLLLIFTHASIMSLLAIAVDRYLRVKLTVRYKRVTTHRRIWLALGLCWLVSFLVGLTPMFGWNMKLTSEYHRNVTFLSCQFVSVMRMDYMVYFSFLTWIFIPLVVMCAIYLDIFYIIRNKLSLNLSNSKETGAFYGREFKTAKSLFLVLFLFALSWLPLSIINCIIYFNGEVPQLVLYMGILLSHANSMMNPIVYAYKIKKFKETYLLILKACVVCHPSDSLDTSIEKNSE
Text: The compounds useful in the invention are agonists at the adenosine A1 receptor. Preferably they are selective agonists at the adenosine A1 receptor. By selective is meant that the affinity for the A1 receptor is at least 2 times, preferably 5 times and more preferably 10 times greater than the other adenosine receptor subtypes, particularly A3. Agonist selectivity of compounds against other human adenosine receptors can be determined using Chinese hamster ovary (CHO) cells transfected with the gene for the relevant human adenosine receptor following a method based on that of Castanon, K V. and Spevak, W. (1994) Biochem. Biophys. Res. Commun. 198, 626-631. The CHO cells are also transfected with cyclic AMP response elements promoting the gene for secreted placental alkaline phosphatase (SPAP) (Wood, K V. (1995) Cuff. Opinion. Biotechnology, 6, 50-58). The effect of test compounds is determined by their effects on basal levels of cAMP (A2a) or on forskolin-enhanced cAMP (A1 and A3) as reflected by changes in levels of SPAP. EC50 values for compounds are determined as a ratio to that of the non-selective agonist N-ethyl carboxamidoadenosine (NECA). “Adenosine receptors: New opportunities for future drugs” (S. A. Poulsen et al, Bioorg. Med. Chem,. 1998, 6, 619-641) summarises disease conditions that may be treated with adenosine A1 agonists.
Reporter Gene Experiments in CHO cells
Agonist activity at human adenosine A3 receptors was measured in Chinese hamster ovary (CHO) cells containing the CRE/SPAP/HYG (CRE=cyclic AMP response element; HYG=hygromycin resistance; SPAP=secreted placental alkaline phosphatase) reporter gene elements, which upon stimulation of cAMP levels produced SPAP. A cell line was used which was stably transfected with the human adenosine A3 receptor in addition to the above elements. Cells were plated out in 96-well plates in culture medium and incubated at 37° C. for 1 hour. For measurement of potency, agonists were added to the appropriate wells at a concentration range of approximately 10^−10-10^−5M. 15 Min later, cAMP levels were stimulated by addition of a maximal concentration of forskolin. All cells were then incubated for a further 5 hours at 37° C., and cooled to room temperature, after which a substrate for the phosphatase (para-nitrophenol phosphate, pNPP), which is converted by SPAP to a coloured reagent) was then added and the 96-well plates were read in a plate reader. From these readings, the concentration-dependence of the inhibition by the agonist for forskolin-stimulated SPAP production can be calculated. As with the yeast assays, one of the agonists tested on each 96-well plate was the standard non-selective agonist, N-ethylcarboxamidoadenosine (NECA), and the potency of all test agonists is expressed relative to that of the NECA standard.

[2] = biological target: T2, human adenosine A1 receptors (Homo sapiens, UniProt P30542); assay: Reporter gene experiments in yeast (agonist activity, β-galactosidase/FDG readout); type: cell-based; set-up: key: equipotent concentration ratio relative to NECA = 1; conditions: ECR = equipotent concentration ratio relative to NECA = 1; agonist potency, yeast reporter gene assay
T2 construct: expressed in transfected cells
T2 sequence (P30542 1-326): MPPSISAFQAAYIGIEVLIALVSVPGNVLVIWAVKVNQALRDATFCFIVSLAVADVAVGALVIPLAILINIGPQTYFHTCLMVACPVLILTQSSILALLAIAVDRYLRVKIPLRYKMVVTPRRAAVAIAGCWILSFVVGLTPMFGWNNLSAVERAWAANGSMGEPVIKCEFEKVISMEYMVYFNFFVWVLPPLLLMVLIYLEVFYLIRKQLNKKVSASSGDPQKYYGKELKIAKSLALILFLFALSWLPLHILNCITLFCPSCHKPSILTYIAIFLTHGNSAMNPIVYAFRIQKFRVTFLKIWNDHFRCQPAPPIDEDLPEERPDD
Method: Reporter Gene Experiments in Yeast
Agonist activity at human adenosine A1 receptors was measured in yeast cell lines expressing the adenosine A1 receptor together with a chimeric G-protein which linked receptor stimulation to the expression of the enzyme β-galactosidase. Cells were plated out in 96-well plates in culture medium to which was added 2 mM 3-AT (3-aminotriazole) to limit basal growth in the absence of agonist stimulation, and FDG (fluorescein di-β-D-galactopyranoside) as substrate for β-galactosidase, which converts FDG to fluorescein. For measurement of potency, agonists were added to the appropriate wells at a concentration range of approximately 10^−10-10^−5M and incubated at 30° C. for 18 hours. At this point the amount of fluorescein generated was measured in a spectrophotometer. From these readings, the concentration-dependence of the stimulation by the agonist can be calculated. One of the agonists tested on each 96-well plate was the standard non-selective agonist, N-ethylcarboxamidoadenosine (NECA), and the potency of all test agonists is expressed relative to that of the NECA standard.
(ECR=equipotent concentration ratio relative to NECA=1)

Row | Adenosine A3 receptor ECR* [1] | Adenosine A1 receptor ECR* [2] | SMILES
1 | >416 | 2.88 | C#C[C@H]1O[C@@H](n2cnc3c(N[C@H]4C[C@H]5CCC[C@H]54)ncnc32)[C@H](O)[C@@H]1O (relative stereo) [Example 17, (2R,3R,4S,5R)-2-{6-[(1R*,5R*,6S*)-Bicyclo[3.2.0]hept-6-ylamino]-9H-purin-9-yl}-5-ethynyltetrahydrofuran-3,4-diol]
2 | >1070 | 9.95 | C#C[C@H]1O[C@@H](n2cnc3c(NCCS(=O)(=O)NCC)ncnc32)[C@H](O)[C@@H]1O [Example 1, N-Ethyl-2-({9-[(2R,3R,4S,5R)-5-ethynyl-3,4-dihydroxytetrahydrofuran-2-yl]-9H-purin-6-yl}amino)ethanesulfonamide]
3 | >3580 | 10 | C#C[C@H]1O[C@@H](n2cnc3c(NC4CCN(C(=O)OCC)CC4)ncnc32)[C@H](O)[C@@H]1O [Example 2, Ethyl 4-({9-[(2R,3R,4S,5R)-5-ethynyl-3,4-dihydroxytetrahydrofuran-2-yl]-9H-purin-6-yl}amino)piperidine-1-carboxylate]
4 | >823 | 6.48 | C#C[C@H]1O[C@@H](n2cnc3c(N[C@H]4CCC[C@@H]4O)ncnc32)[C@H](O)[C@@H]1O [Example 3, (2R,3R,4S,5R)-5-Ethynyl-2-(6-{[(1S,2S)-2-hydroxycyclopentyl]amino}-9H-purin-9-yl)tetrahydrofuran-3,4-diol]
5 | >407 | 27.96 | C#C[C@H]1O[C@@H](n2cnc3c(NC4Cc5ccccc5C4)ncnc32)[C@H](O)[C@@H]1O [Example 4, (2R,3R,4S,5R)-2-[6-(2,3-Dihydro-1H-inden-2-ylamino)-9H-purin-9-yl]-5-ethynyltetrahydrofuran-3,4-diol]
6 | >1059 | 24.6 | C#C[C@H]1O[C@@H](n2cnc3c(NCCc4ccccc4)ncnc32)[C@H](O)[C@@H]1O [Example 6, (2R,3R,4S,5R)-5-ethynyl-2-{6-[(2-phenylethyl)amino]-9H-purin-9-yl}tetrahydrofuran-3,4-diol]
7 | >178 | 11.4 | C#C[C@H]1O[C@@H](n2cnc3c(NC4CCCCC4)ncnc32)[C@H](O)[C@@H]1O [Example 7, (2R,3R,4S,5R)-2-[6-(Cyclohexylamino)-9H-purin-9-yl]-5-ethynyltetrahydrofuran-3,4-diol]
8 | >178 | 7.94 | C#C[C@H]1O[C@@H](n2cnc3c(N[C@H]4[C@H]5CC[C@H](C5)[C@@H]4C)ncnc32)[C@H](O)[C@@H]1O [Example 8, (2R,3R,4S,5R)-5-Ethynyl-2-(6-{[(1S,2S,3S,4R)-3-methylbicyclo[2.2.1]hept-2-yl]amino}-9H-purin-9-yl)tetrahydrofuran-3,4-diol]
9 | >1066 | 6.89 | C#C[C@H]1O[C@@H](n2cnc3c(NC4CC4)ncnc32)[C@H](O)[C@@H]1O [Example 10, (2R,3R,4S,5R)-2-[6-(Cyclopropylamino)-9H-purin-9-yl]-5-ethynyltetrahydrofuran-3,4-diol]
10 | >210 | 5 | C#C[C@H]1O[C@@H](n2cnc3c(NCC4CC4)ncnc32)[C@H](O)[C@@H]1O [Example 11, (2R,3R,4S,5R)-2-{6-[(Cyclopropylmethyl)amino]-9H-purin-9-yl}-5-ethynyltetrahydrofuran-3,4-diol]
11 | >80.2 | 4.47 | C#C[C@H]1O[C@@H](n2cnc3c(NC4CCCC4)ncnc32)[C@H](O)[C@@H]1O [Example 12]
12 | >386 | 18.86 | C#C[C@H]1O[C@@H](n2cnc3c(N[C@@H]4CCO[C@@H]4C)ncnc32)[C@H](O)[C@@H]1O [Example 13, (2R,3R,4S,5R)-5-Ethynyl-2-(6-{[(2R,3R)-2-methyltetrahydrofuran-3-yl]amino}-9H-purin-9-yl)tetrahydrofuran-3,4-diol]
13 | >502 | 14.86 | C#C[C@H]1O[C@@H](n2cnc3c(N[C@H]4CCO[C@H]4C)ncnc32)[C@H](O)[C@@H]1O [Example 14, (2R,3R,4S,5R)-5-Ethynyl-2-(6-{[(2S,3S)-2-methyltetrahydrofuran-3-yl]amino}-9H-purin-9-yl)tetrahydrofuran-3,4-diol]
14 | >3208 | 6.81 | C#C[C@H]1O[C@@H](n2cnc3c(NC4CC4(C)C)ncnc32)[C@H](O)[C@@H]1O (stereo partly drawn) [Example 18, (2R,3R,4S,5R)-2-{6-[(2,2-Dimethylcyclopropyl)amino]-9H-purin-9-yl}-5-ethynyltetrahydrofuran-3,4-diol]
15 | >1070 | 7.94 | C#C[C@H]1O[C@@H](n2cnc3c(Nc4ccc(F)cc4F)ncnc32)[C@H](O)[C@@H]1O [Example 32, (2R,3R,4S,5R)-2-{6-[(2,4-Difluorophenyl)amino]-9H-purin-9-yl}-5-ethynyltetrahydrofuran-3,4-diol]
16 | >215 | 26.31 | C#C[C@H]1O[C@@H](n2cnc3c(Nc4ccc(Cl)cc4F)ncnc32)[C@H](O)[C@@H]1O [Example 33, (2R,3R,4S,5R)-2-{6-[(4-Chloro-2-fluorophenyl)amino]-9H-purin-9-yl}-5-ethynyltetrahydrofuran-3,4-diol]
17 | >974 | 6.48 | C#C[C@H]1O[C@@H](n2cnc3c(Nc4ccc(F)cc4Cl)ncnc32)[C@H](O)[C@@H]1O [Example 35, (2R,3R,4S,5R)-2-{6-[(2-chloro-4-fluorophenyl)amino]-9H-purin-9-yl}-5-ethynyltetrahydrofuran-3,4-diol]
18 | >1117 | 7.15 | C#C[C@H]1O[C@@H](n2cnc3c(Nc4ccc(F)cc4C)ncnc32)[C@H](O)[C@@H]1O [Example 36, (2R,3R,4S,5R)-5-Ethynyl-2-{6-[(4-fluoro-2-methylphenyl)amino]-9H-purin-9-yl}tetrahydrofuran-3,4-diol]

Row | SMILES | Adenosine A3 receptor ECR* [1] | Adenosine A1 receptor ECR* [2]
19 | C#C[C@H]1O[C@@H](n2cnc3c(N[C@@H]4CCC[C@]4(OC)c4ccccc4)ncnc32)[C@H](O)[C@@H]1O (relative stereo) [Example 9, (2R,3R,4S,6R)-5-Ethynyl-2-(6-{[(1R*,2S*)-2-methoxy-2-phenylcyclopentyl]amino}-9H-purin-9-yl)tetrahydrofuran-3,4-diol] | >165 | 23.81
